Measured values from patent US8937078B2, “Quinazolinones as prolyl hydroxylase inhibitors” (Janssen Pharmaceutica NV, priority 2009, dated 2015).

What was measured:
[1] = biological target: T1, human PHD2 (PHD2181-417) (Homo sapiens, UniProt Q9GZT9); test: PHD enzymatic assay ([14C]-succinic acid production); type: biochemical; conditions: PHD2181-417, HIF-1α peptide 10 μM, average of results; read-out: Enzyme pIC50 (converted)
T1 construct: Smt (SUMO) tag (cleaved yes); made in house; host or cells: E. coli BL21 (pBAD vector)
T1 sequence (Q9GZT9 181-417): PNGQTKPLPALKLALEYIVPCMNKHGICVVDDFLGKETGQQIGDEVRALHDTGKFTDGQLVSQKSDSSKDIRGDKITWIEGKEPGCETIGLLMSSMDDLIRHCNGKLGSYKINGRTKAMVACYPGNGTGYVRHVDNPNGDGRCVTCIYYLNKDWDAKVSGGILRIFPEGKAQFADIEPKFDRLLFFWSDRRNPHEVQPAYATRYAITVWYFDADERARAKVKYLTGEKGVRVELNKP
Outline: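 Activity measured as [14C]-succinic acid formed from [5-14C]-2-oxoglutarate over 10 minutes, with peptide substrate at 10 μM, in Tris-HCl pH 7.5 buffer containing catalase, DTT and ascorbate. Unreacted oxoglutarate removed by DNP derivatisation; supernatant beta-counted.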

[2] = system: Hep-3B cells; test: Cellular assay: erythropoietin secretion in Hep-3B cells; type: cell-based, human; conditions: Homo sapiens, Hep3B, 100 μM compound, 24 hours, percent of EPO secretion relative to assay control compound 7-[(4-Chloro-phenyl)-(5-methyl-isoxazol-3-ylamino)-methyl]-quinolin-8-ol, read-out: Cellular % EPO Stimulation
Outline: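 Hep-3B cells in DMEM with 10% FBS, treated 24 h after plating with compounds at 100 μM final for a further 24 h. Secreted EPO in supernatant measured by MSD electrochemiluminescence sandwich immunoassay with anti-EPO detection antibody.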

| SMILES | IC50 [1] | Emax at 100 µM [2] |
| --- | --- | --- |
| C=C(Cl)c1ccc2nc(-n3cc(C(=O)O)cn3)[nH]c(=O)c2c1 [Example 77, 1-[6-(1-Chloro-vinyl)-4-oxo-3,4-dihydro-quinazolin-2-yl]-1H-pyrazole-4-carboxylic acid] | 25.1 nM | 27% |
| O=C(O)c1cnn(-c2nc3ccc(Oc4cc(F)cc(C(F)(F)F)c4)cc3c(=O)[nH]2)c1 [Example 97, 1-[6-(3-fluoro-5-trifluoromethyl-phenoxy)-4-oxo-3,4-dihydro-quinazolin-2-yl]-1H-pyrazole-4-carboxylic acid] | 20 nM | 37% |
| O=C(O)c1cnn(-c2nc3ccc(Oc4cccc5ccccc45)cc3c(=O)[nH]2)c1 [Example 29, 1-[6-(naphthalen-1-yloxy)-4-oxo-3,4-dihydro-quinazolin-2-yl]-1H-pyrazole-4-carboxylic acid] | 25.1 nM | 124% |
| Cc1cccc(C)c1NC(=O)c1ccc2nc(-n3cc(C(=O)O)cn3)[nH]c(=O)c2c1 [Example 163, 1-[6-(2,6-Dimethyl-phenylcarbamoyl)-4-oxo-3,4-dihydro-quinazolin-2-yl]-1H-pyrazole-4-carboxylic acid] | 39.8 nM | 14% |
| CCC(C)c1ccc2nc(-n3cc(C(=O)O)cn3)[nH]c(=O)c2c1 (stereo not shown) [Example 120, 1-(6-sec-Butyl-4-oxo-3,4-dihydro-quinazolin-2-yl)-1H-pyrazole-4-carboxylic acid] | 20 nM | 68% |
| COc1cc2nc(-n3cc(C(=O)O)cn3)[nH]c(=O)c2cc1Oc1c(C)cccc1C [Example 61, 1-[6-(2,6-Dimethyl-phenoxy)-7-methoxy-4-oxo-3,4-dihydro-quinazolin-2-yl]-1H-pyrazole-4-carboxylic acid] | 20 nM | 86% |
| O=C(O)c1cnn(-c2nc3ccc(-c4ccccc4Cl)cc3c(=O)[nH]2)c1 [Example 192, 1-[6-(2-Chloro-phenyl)-4-oxo-3,4-dihydro-quinazolin-2-yl]-1H-pyrazole-4-carboxylic acid] | 31.6 nM | 87% |
| NC(=O)c1cccc(CNc2ccc3nc(-n4cc(C(=O)O)cn4)[nH]c(=O)c3c2)c1 [Example 179, 1-[6-(3-Carbamoyl-benzylamino)-4-oxo-3,4-dihydro-quinazolin-2-yl]-1H-pyrazole-4-carboxylic acid] | 25.1 nM | 12% |
| O=C(O)c1cnn(-c2nc3ccc(Oc4cccc5c4CCCC5)cc3c(=O)[nH]2)c1 [Example 44, 1-[4-Oxo-6-(5,6,7,8-tetrahydro-naphthalen-1-yloxy)-3,4-dihydro-quinazolin-2-yl]-1H-pyrazole-4-carboxylic acid] | 25.1 nM | 52% |
| O=C(O)c1cnn(-c2nc3ccc(Oc4cccc(C(F)(F)F)c4F)cc3c(=O)[nH]2)c1 [Example 96, 1-[6-(2-fluoro-3-trifluoromethyl-phenoxy)-4-oxo-3,4-dihydro-quinazolin-2-yl]-1H-pyrazole-4-carboxylic acid] | 25.1 nM | 51% |
| Cc1cccc(Oc2ccc3nc(-n4cc(C(=O)O)cn4)[nH]c(=O)c3c2)c1 [Example 36, 1-(4-Oxo-6-m-tolyloxy-3,4-dihydro-quinazolin-2-yl)-1H-pyrazole-4-carboxylic acid] | 39.8 nM | 22% |
| O=C(O)c1cnn(-c2nc3cc4c(cc3c(=O)[nH]2)CCCC4)c1 [Example 143, 1-(4-Oxo-3,4,6,7,8,9-hexahydro-benzo[g]quinazolin-2-yl)-1H-pyrazole-4-carboxylic acid] | 31.6 nM | 75% |
| O=C(O)c1cnn(-c2nc3ccc(Oc4ccccc4)cc3c(=O)[nH]2)c1 [Example 20, 1-(4-Oxo-6-phenoxy-3,4-dihydro-quinazolin-2-yl)-1H-pyrazole-4-carboxylic acid] | 25.1 nM | 104% |
| Cc1cccc(C)c1C(=O)Nc1ccc2nc(-n3cc(C(=O)O)cn3)[nH]c(=O)c2c1 [Example 166, 1-[6-(2,6-Dimethyl-benzoylamino)-4-oxo-3,4-dihydro-quinazolin-2-yl]-1H-pyrazole-4-carboxylic acid] | 31.6 nM | 11% |
| O=C(O)c1cnn(-c2nc3c(OC(F)(F)F)cccc3c(=O)[nH]2)c1 [Example 117, 1-(4-Oxo-8-trifluoromethoxy-3,4-dihydro-quinazolin-2-yl)-1H-pyrazole-4-carboxylic acid] | 794 nM | 12% |
| O=C(O)c1cnn(-c2nc3cc(Cl)c(Oc4ccc(Cl)cc4)cc3c(=O)[nH]2)c1 [Example 48, 1-[7-Chloro-6-(4-chloro-phenoxy)-4-oxo-3,4-dihydro-quinazolin-2-yl]-1H-pyrazole-4-carboxylic acid] | 31.6 nM | 51% |

| SMILES | IC50 [1] | Emax at 100 µM [2] |
| --- | --- | --- |
| O=C(O)c1cnn(-c2nc3cc(F)c(Oc4cc(Cl)ccc4Cl)cc3c(=O)[nH]2)c1 [Example 87, 1-[6-(2,5-dichloro-phenoxy)-7-fluoro-4-oxo-3,4-dihydro-quinazolin-2-yl]-1H-pyrazole-4-carboxylic acid] | 20 nM | 84% |
| O=C(O)c1cnn(-c2nc3ccc(Oc4cccc(C(F)(F)F)c4)cc3c(=O)[nH]2)c1 [Example 100, 1-[4-oxo-6-(3-trifluoromethyl-phenoxy)-3,4-dihydro-quinazolin-2-yl]-1H-pyrazole-4-carboxylic acid] | 25.1 nM | 55% |
| O=C(O)c1cnn(-c2nc3cc(F)cc(F)c3c(=O)[nH]2)c1 [Example 131, 1-(5,7-Difluoro-4-oxo-3,4-dihydro-quinazolin-2-yl)-1H-pyrazole-4-carboxylic acid] | 63.1 nM | 21% |
| O=C(O)c1cnn(-c2nc3cc(-c4ccc(Cl)cc4)ccc3c(=O)[nH]2)c1 [Example 187, 1-[7-(4-Chloro-phenyl)-4-oxo-3,4-dihydro-quinazolin-2-yl]-1H-pyrazole-4-carboxylic acid] | 63.1 nM | 24% |
| Cc1cccc(C)c1CNc1ccc2nc(-n3cc(C(=O)O)cn3)[nH]c(=O)c2c1 [Example 175, 1-[6-(2,6-Dimethyl-benzylamino)-4-oxo-3,4-dihydro-quinazolin-2-yl]-1H-pyrazole-4-carboxylic acid] | 31.6 nM | 97% |
| Cc1ccc(-c2ccc3nc(-n4cc(C(=O)O)cn4)[nH]c(=O)c3c2)cc1 [Example 191, 1-(4-Oxo-6-p-tolyl-3,4-dihydro-quinazolin-2-yl)-1H-pyrazole-4-carboxylic acid] | 20 nM | 31% |
| O=C(O)c1cnn(-c2nc3ccc4c(c3c(=O)[nH]2)CCCC4)c1 [Example 144, 1-(1-Oxo-1,2,7,8,9,10-hexahydro-benzo[f]quinazolin-3-yl)-1H-pyrazole-4-carboxylic acid] | 39.8 nM | 42% |
| O=C(O)c1cnn(-c2nc3cc(Cl)c(Oc4ccc5ccccc5c4)cc3c(=O)[nH]2)c1 [Example 54, 1-[7-Chloro-6-(naphthalen-2-yloxy)-4-oxo-3,4-dihydro-quinazolin-2-yl]-1H-pyrazole-4-carboxylic acid] | 39.8 nM | 90% |
| O=C(O)c1cnn(-c2nc3ccc(Oc4cccc(F)c4)cc3c(=O)[nH]2)c1 [Example 34, 1-[6-(3-Fluoro-phenoxy)-4-oxo-3,4-dihydro-quinazolin-2-yl]-1H-pyrazole-4-carboxylic acid] | 25.1 nM | 73% |
| O=C(O)c1cnn(-c2nc3cc(F)ccc3c(=O)[nH]2)c1 [Example 133, 1-(7-Fluoro-4-oxo-3,4-dihydro-quinazolin-2-yl)-1H-pyrazole-4-carboxylic acid] | 39.8 nM | 10% |
| COc1ccc2nc(-n3cc(C(=O)O)cn3)[nH]c(=O)c2c1 [Example 122, 1-(6-Methoxy-4-oxo-3,4-dihydro-quinazolin-2-yl)-1H-pyrazole-4-carboxylic acid] | 25.1 nM | 16% |
| O=C(O)c1cnn(-c2nc3cc(F)c(Oc4ccccc4)c(F)c3c(=O)[nH]2)c1 [Example 64, 1-(5,7-Difluoro-4-oxo-6-phenoxy-3,4-dihydro-quinazolin-2-yl)-1H-pyrazole-4-carboxylic acid] | 25.1 nM | 22% |
| O=C(O)c1cnn(-c2nc3ccc(-c4ccc5cc[nH]c5c4)cc3c(=O)[nH]2)c1 [Example 108, 1-[6-(1H-Indol-6-yl)-4-oxo-3,4-dihydro-quinazolin-2-yl]-1H-pyrazole-4-carboxylic acid] | 25.1 nM | 85% |
| O=C(O)c1cnn(-c2nc3cc(Cl)c([S+]([O-])C(F)(F)F)cc3c(=O)[nH]2)c1 (stereo not shown) [Example 160, 1-(7-Chloro-4-oxo-6-trifluoromethanesulfinyl-3,4-dihydro-quinazolin-2-yl)-1H-pyrazole-4-carboxylic acid] | 39.8 nM | 13% |
| CC(C)(C)c1ccc2c(=O)[nH]c(-n3cc(C(=O)O)cn3)nc2c1 [Example 147, 1-(7-tert-Butyl-4-oxo-3,4-dihydro-quinazolin-2-yl)-1H-pyrazole-4-carboxylic acid] | 398 nM | 11% |
| O=C(O)c1cnn(-c2nc3ccc(-c4ccc(F)cc4)cc3c(=O)[nH]2)c1 [Example 197, 1-[6-(4-Fluoro-phenyl)-4-oxo-3,4-dihydro-quinazolin-2-yl]-1H-pyrazole-4-carboxylic acid] | 20 nM | 108% |
